Results: patent publication US20120101100A1 (priority 2008, published 2012)

Target: S. aureus GyrB ATPase (Staphylococcus aureus, UniProt P0A0K8)
Assay: S. aureus (SAU) GyrB ATPase inhibition, malachite green phosphate detection (E. coli GyrA + S. aureus GyrB)
Format: biochemical
Conditions: for inhibition at 1 µM: compound concentration of 1.0 μM unless otherwise noted, average value where assay was carried out more than once, read-out: S. aureus (SAU) GyrB ATPase % Inhibition
Summary of the method: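 Phosphate from ATP hydrolysis (500 μM ATP) read as malachite green/molybdate absorbance at 650 nm after acid quench. Reaction: 1.25 nM S. aureus GyrB plus 1.25 nM E. coli GyrA, sheared DNA, Hepes pH 7.5 with Mg2+. IC50 fitted over 10 concentrations, normalised to DMSO (2%) and novobiocin (2 μM) controls.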

Chain of S. aureus GyrB ATPase (P0A0K8 whole entry): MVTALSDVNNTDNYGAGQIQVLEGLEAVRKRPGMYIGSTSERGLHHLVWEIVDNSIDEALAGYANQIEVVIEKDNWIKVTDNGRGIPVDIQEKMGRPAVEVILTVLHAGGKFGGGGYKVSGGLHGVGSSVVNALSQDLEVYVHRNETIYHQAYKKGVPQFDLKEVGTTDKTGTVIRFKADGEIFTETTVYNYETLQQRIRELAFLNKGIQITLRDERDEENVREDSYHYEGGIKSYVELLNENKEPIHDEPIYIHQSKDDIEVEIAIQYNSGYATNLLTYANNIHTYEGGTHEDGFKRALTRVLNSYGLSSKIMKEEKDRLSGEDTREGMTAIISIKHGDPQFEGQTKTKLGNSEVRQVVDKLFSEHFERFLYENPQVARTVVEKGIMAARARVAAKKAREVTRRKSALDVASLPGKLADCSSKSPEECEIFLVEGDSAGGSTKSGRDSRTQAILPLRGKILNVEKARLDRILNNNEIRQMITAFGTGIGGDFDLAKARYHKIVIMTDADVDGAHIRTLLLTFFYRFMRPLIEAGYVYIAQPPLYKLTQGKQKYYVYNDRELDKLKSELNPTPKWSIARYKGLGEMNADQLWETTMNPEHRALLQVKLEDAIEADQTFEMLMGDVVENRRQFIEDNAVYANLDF
Chain of S. aureus GyrB ATPase (P0AES4 whole entry, further chain): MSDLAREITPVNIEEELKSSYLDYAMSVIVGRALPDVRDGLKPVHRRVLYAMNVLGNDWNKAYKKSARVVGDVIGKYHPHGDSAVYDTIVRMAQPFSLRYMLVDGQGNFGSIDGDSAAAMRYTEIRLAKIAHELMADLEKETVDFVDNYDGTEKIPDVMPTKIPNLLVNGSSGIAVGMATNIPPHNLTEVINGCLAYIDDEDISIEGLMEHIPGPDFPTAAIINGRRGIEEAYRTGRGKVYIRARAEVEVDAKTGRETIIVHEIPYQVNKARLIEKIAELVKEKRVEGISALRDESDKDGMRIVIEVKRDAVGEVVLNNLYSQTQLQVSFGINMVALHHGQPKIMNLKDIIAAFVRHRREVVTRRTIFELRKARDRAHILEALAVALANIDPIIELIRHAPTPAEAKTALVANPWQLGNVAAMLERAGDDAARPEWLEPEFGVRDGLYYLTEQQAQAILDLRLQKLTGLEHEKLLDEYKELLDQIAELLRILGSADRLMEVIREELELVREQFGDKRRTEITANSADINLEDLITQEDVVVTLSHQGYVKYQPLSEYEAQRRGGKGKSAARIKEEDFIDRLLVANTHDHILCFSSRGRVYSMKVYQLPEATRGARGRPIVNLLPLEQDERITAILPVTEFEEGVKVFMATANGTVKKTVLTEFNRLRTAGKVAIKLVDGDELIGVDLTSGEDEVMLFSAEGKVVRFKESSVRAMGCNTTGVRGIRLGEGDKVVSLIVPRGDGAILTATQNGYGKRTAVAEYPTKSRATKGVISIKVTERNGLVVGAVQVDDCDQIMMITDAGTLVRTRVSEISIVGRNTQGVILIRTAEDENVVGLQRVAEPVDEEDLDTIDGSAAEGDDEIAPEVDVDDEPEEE

SMILES | inhibition at 1 µM | IC50 (10 compound concentrations, 500 μM ATP)
CCNC(=O)Nc1cc(-c2nc(C(F)(F)F)cs2)c(-c2cncc(-c3nnc(CC(C)=O)o3)c2)cn1 [Example 265, 1-ethyl-3-(5′-(5-(2-oxopropyl)-1,3,4-oxadiazol-2-yl)-4-(4-(trifluoromethyl)thiazol-2-yl)-3,3′-bipyridin-6-yl)urea] | 101% | –
CCNC(=O)Nc1cc(-c2nc(C(F)(F)F)cs2)c(-c2cncc(-c3c(C)noc3C)c2)cn1 [Example 133] | 104% | –
CCCNC(=O)Nc1cc(-c2nc(C(F)(F)F)cs2)c(-c2cc(-c3nnc(C)o3)cnc2OCCN2CCCC2)cn1 [Example 168] | 69% | –
CCNC(=O)Nc1cc(-c2nc(C(F)(F)F)cs2)c(-c2cc(-c3n[nH]c(=O)o3)nc(N3CCOCC3)c2)cn1 [Example 86, 1-ethyl-3-(2′-morpholino-6′-(5-oxo-4,5-dihydro-1,3,4-oxadiazol-2-yl)-4-(4-(trifluoromethyl)thiazol-2-yl)-3,4′-bipyridin-6-yl)urea] | 97% | –
CCNC(=O)Nc1cc(-c2nc(C(F)(F)F)cs2)c(-c2cc(-c3nnc(C)o3)cnc2OC2CCNCC2)cn1 [Example 110, 1-Ethyl-3-{5′-(5-methyl-1,3,4-oxadiazol-2-yl)-2′-(piperidin-4-yloxy)-4-[4-(trifluoromethyl)-1,3-thiazol-2-yl]-3,3′-bipyridin-6-yl}urea] | 95% | –
CCNC(=O)Nc1cc(-c2nc(C(F)(F)F)cs2)c(-c2cncc(-c3nnc(CN)o3)c2)cn1 [Example 281, 1-(5′-(5-(aminomethyl)-1,3,4-oxadiazol-2-yl)-4-(4-(trifluoromethyl)thiazol-2-yl)-3,3′-bipyridin-6-yl)-3-ethylurea] | 94% | –
CCNC(=O)Nc1cc(-c2nc(C(F)(F)F)cs2)c(-c2cc(-c3n[nH]c(=O)o3)cnc2OC2CCN(C(C)C)CC2)cn1 [Example 219] | 97% | –
CCNC(=O)Nc1cc(-c2nc(C(F)(F)F)c(C(=O)NC3CCCC3)s2)c(-c2cncc(-c3nnc(C)o3)c2)cn1 [Example 68, N-cyclopentyl-2-(6-(3-ethylureido)-5′-(5-methyl-1,3,4-oxadiazol-2-yl)-3,3′-bipyridin-4-yl)-4-(trifluoromethyl)thiazole-5-carboxamide] | 96% | –
CCNC(=O)Nc1cc(-c2nc(C(F)(F)F)cs2)c(-c2cccc(C#N)n2)cn1 [Example 32, 1-(6-cyano-4′-(4-(trifluoromethyl)thiazol-2-yl)-2,3′-bipyridin-6′-yl)-3-ethylurea] | 106% | 62 nM
CCNC(=O)Nc1cc(-c2nc(C(F)(F)F)cs2)c(-c2cncc(-c3cnn(C)c3)c2)cn1 [Example 24, 1-Ethyl-3-(5′-(1-methyl-1H-pyrazol-4-yl)-4-(4-(trifluoromethyl)thiazol-2-yl)-3,3′-bipyridin-6-yl)urea] | 109% | –
CCNC(=O)Nc1cc(-c2nnc(-c3ccc(F)cc3)o2)c(-c2cncc(-c3n[nH]c(=O)o3)c2)cn1 [Example 198] | 104% | –
CCNC(=O)Nc1cc(C2=NC(OC)(C(F)(F)F)CS2)c(-c2cncc(-c3n[nH]c(=O)o3)c2)cn1 (centres unmarked) [Example 143] | 98% | –
CCNC(=O)Nc1cc(-c2nc(-c3ccccc3)cs2)c(-c2cc(-c3nnc(C)o3)cnc2CC)cn1 [Example 74] | 94% | –
CCNC(=O)Nc1cc(-c2nc(C(F)(F)F)cs2)c(-c2csc(N3CCOCC3)n2)cn1 [Example 30, 1-ethyl-3-(5-(2-morpholinothiazol-4-yl)-4-(4-(trifluoromethyl)thiazol-2-yl)pyridin-2-yl)urea] | 105% | –
CCNC(=O)Nc1cc(-c2nc(C(F)(F)F)c(CNC3CCOCC3)s2)c(-c2cncc(-c3nnc(C)o3)c2)cn1 [Example 58, 1-ethyl-3-(5′-(5-methyl-1,3,4-oxadiazol-2-yl)-4-(5-((tetrahydro-2H-pyran-4-ylamino)methyl)-4-(trifluoromethyl)thiazol-2-yl)-3,3′-bipyridin-6-yl)urea] | 97% | –
CCCNC(=O)Nc1cc(-c2nc(C(F)(F)F)cs2)c(-c2cc(-c3n[nH]c(=O)o3)cnc2OCCN2CCCC2)cn1 [Example 171] | 106% | –
CCNC(=O)Nc1cc(-c2nc(C(F)(F)F)cs2)c(-c2cc(-c3n[nH]c(=O)o3)cnc2OCC2CCOCC2)cn1 [Example 112, 1-Ethyl-3-{5′-(5-oxo-4,5-dihydro-1,3,4-oxadiazol-2-yl)-2′-(tetrahydro-2H-pyran-4-ylmethoxy)-4-[4-(trifluoromethyl)-1,3-thiazol-2-yl]-3,3′-bipyridin-6-yl}urea] | 95% | –
CCNC(=O)Nc1cc(-c2nc(C(F)(F)F)cs2)c(-c2cc(-c3n[nH]c(=O)o3)cnc2OCCN(CC)CC)cn1 [Example 119] | 96% | –
CCNC(=O)Nc1cc(-c2nc(C(F)(F)F)cs2)c(-c2cc(-c3n[nH]c(=O)o3)cnc2OCCN2CCCC2)cn1 [Example 186] | 110% | –

SMILES | inhibition at 1 µM | IC50 (10 compound concentrations, 500 μM ATP)
CCNC(=O)Nc1cc(-c2nc(-c3ccccc3)cs2)c(-c2nc(-c3ncnn3C)c(-c3nnc(C)o3)s2)cn1 [Example 97, 1-ethyl-3-(5-(5-(5-methyl-1,3,4-oxadiazol-2-yl)-4-(1-methyl-1H-1,2,4-triazol-5-yl)thiazol-2-yl)-4-(4-phenylthiazol-2-yl)pyridin-2-yl)urea] | 99% | –
CCNC(=O)Nc1cc(-c2nnc(-c3ccccc3)o2)c(-c2cnc(OC)c(-c3n[nH]c(=O)o3)c2)cn1 [Example 197] | 106% | –
CCNC(=O)Nc1cc(-c2nc(C(F)(F)F)cs2)c(-c2cncc(-c3nnc(C)n3N)c2)cn1 [Example 283, 1-(5′-(4-amino-5-methyl-4H-1,2,4-triazol-3-yl)-4-(4-(trifluoromethyl)thiazol-2-yl)-3,3′-bipyridin-6-yl)-3-ethylurea] | 94% | –
CCNC(=O)Nc1cc(-c2nc(-c3ccccc3)cs2)c(-c2ccnc(-c3n[nH]c(=O)o3)c2)cn1 [Example 95, 1-ethyl-3-(2′-(5-oxo-4,5-dihydro-1,3,4-oxadiazol-2-yl)-4-(4-phenylthiazol-2-yl)-3,4′-bipyridin-6-yl)urea] | 99% | –
CCNC(=O)Nc1cc(-c2nc(C(F)(F)F)cs2)c(-c2cncc(-c3nn(C(=O)N4CCCC4)c(=O)o3)c2)cn1 [Example 159] | 97% | –
CCNC(=O)Nc1cc(-c2nc(C(F)(F)F)cs2)c(-c2cc(-c3nnc(C)o3)cnc2OC2CCOCC2)cn1 [Example 141] | 97% | –
CCNC(=O)Nc1cc(-c2nc(C(F)(F)F)cs2)c(-c2cncc(-c3nnc([C@@H](N)C4CCCCC4)o3)c2)cn1 [Example 238, (S)-1-(5′-(5-(amino(cyclohexyl)methyl)-1,3,4-oxadiazol-2-yl)-4-(4-(trifluoromethyl)thiazol-2-yl)-3,3′-bipyridin-6-yl)-3-ethylurea] | 96% | –
CCNC(=O)Nc1cc(-c2nc(-c3cccnc3OCCOC)cs2)c(-c2cncc(-c3n[nH]c(=O)o3)c2)cn1 [Example 208] | 100% | –
CCNC(=O)Nc1cc(-c2nc(C(F)(F)F)cs2)c(-c2cncc(-c3nnc(N(CC)CC)o3)c2)cn1 [Example 267, 1-(5′-(5-(diethylamino)-1,3,4-oxadiazol-2-yl)-4-(4-(trifluoromethyl)thiazol-2-yl)-3,3′-bipyridin-6-yl)-3-ethylurea] | 98% | –
CCNC(=O)Nc1cc(-c2nc(C(F)(F)F)cs2)c(-c2cc(-c3n[nH]c(=O)o3)cnc2OC2CC(C)(C)N(C)C(C)(C)C2)cn1 [Example 218] | 99% | –
CCNC(=O)Nc1cc(-c2nc(-c3ccccn3)cs2)c(-c2ccnc(-c3n[nH]c(=O)o3)c2)cn1 [Example 106, 1-Ethyl-3-(2′-(5-oxo-4,5-dihydro-1,3,4-oxadiazol-2-yl)-4-(4-(pyridin-2-yl)thiazol-2-yl)-3,4′-bipyridin-6-yl)urea] | 102% | –
CCNC(=O)Nc1cc(-c2nc(C(F)(F)F)cs2)c(-c2ccc(F)nc2)cn1 [Example 127] | 100% | –
CCNC(=O)Nc1cc(-c2nc(C(F)(F)F)cs2)c(-c2ccnc(-c3n[nH]c(=O)o3)c2)cn1 [Example 33, 1-ethyl-3-(2′-(5-oxo-4,5-dihydro-1,3,4-oxadiazol-2-yl)-4-(4-(trifluoromethyl)thiazol-2-yl)-3,4′-bipyridin-6-yl)urea] | 117% | –
O=C(NCC(F)F)Nc1cc(-c2nc(C(F)(F)F)cs2)c(-c2cncc(-c3n[nH]c(=O)o3)c2)cn1 [Example 50, 1-(2,2-difluoroethyl)-3-(5′-(5-oxo-4,5-dihydro-1,3,4-oxadiazol-2-yl)-4-(4-(trifluoromethyl)thiazol-2-yl)-3,3′-bipyridin-6-yl)urea] | 105% | –
CCNC(=O)Nc1cc(-c2nc(C(F)(F)F)cs2)c(-c2cncc(-c3nnco3)c2)cn1 [Example 272, 1-(5′-(1,3,4-oxadiazol-2-yl)-4-(4-(trifluoromethyl)thiazol-2-yl)-3,3′-bipyridin-6-yl)-3-ethylurea] | 90% | –
O=C(NCC1CC1)Nc1cc(-c2nc(C(F)(F)F)cs2)c(-c2cncc(-c3n[nH]c(=O)o3)c2)cn1 [Example 48, 1-(cyclopropylmethyl)-3-(5′-(5-oxo-4,5-dihydro-1,3,4-oxadiazol-2-yl)-4-(4-(trifluoromethyl)thiazol-2-yl)-3,3′-bipyridin-6-yl)urea] | 95% | –
CCNC(=O)Nc1cc(-c2nc(C(F)(F)F)cs2)c(-c2cncc(-c3noc(=S)[nH]3)c2)cn1 [Example 18, 1-Ethyl-3-(5′-(5-thioxo-4,5-dihydro-1,2,4-oxadiazol-3-yl)-4-(4-(trifluoromethyl)thiazol-2-yl)-3,3′-bipyridin-6-yl)urea] | 113% | –
CCNC(=O)Nc1cc(-c2nc(C(F)(F)F)c(C(=O)NC3CCCC3)s2)c(-c2cncc(-c3n[nH]c(=O)o3)c2)cn1 [Example 67, N-cyclopentyl-2-(6-(3-ethylureido)-5′-(5-oxo-4,5-dihydro-1,3,4-oxadiazol-2-yl)-3,3′-bipyridin-4-yl)-4-(trifluoromethyl)thiazole-5-carboxamide] | 93% | –
